Laboratory results taken from patent publication US20260328779A1, “METHODS AND COMPOSITIONS FOR THE DIAGNOSIS AND TREATMENT OF IGA NEPHROPATHY” (Beth Israel Deaconess Medical Center, Inc., priority 2022, published 2026).
“Also recorded” adds a separate entry of the source.

What was measured:
[1] = test system: anti-Tn IgM; experiment: Inhibition of anti-Tn antibody binding to Tn glycopeptide array; set-up: species or system human; details: glycomimetic 20 mM, 30 min at RT, anti-Tn antibodies C3
Description: The Tn glycopeptide microarray was prepared as previously described^77. Briefly, the glycopeptides printed on the microarray is as listed (FIG. 2). Purified anti-Tn antibodies (diluted to […] for IgM, and […] for IgG and IgA detection) in TSM binding buffer (20 mM Tris-HCl, pH 7.4, 150 mM NaCl, 2 mM CaCl2), 2 mM MgCl2, with 1% BSA and 0.05% Tween-20) were added to the respective array slides for 1 h at RT. Alexa Fluor #488-labeled goat anti-human IgM or goat anti-human IgG, or FITC-labeled goat anti-human IgA antibody at 1:400 dilution in TSM binding buffer was used for detection of IgM, IgG, and IgA within purified anti-Tn antibodies. Slides were analyzed on a Genepix^# 4300A microarray scanner (Molecular Devices). Images were analyzed with quantitation software (GenePix® Pro Microarray Analysis Software Ver. 7, Molecular Devices). For inhibition assay, a purified Tn(+)IgA1 produced from CosmcKO Dakiki cells was utilized (See Generation of CosmcKO Dakiki cells using CRISPR-Cas9 system for generating the antibody) to inhibit anti-Tn antibodies binding to microarray and Tn(−)IgA1 produced from Dakiki cells as a […]. Purified anti-Tn antibodies (Cl, 10 mg/ml) in TSM binding buffer was preincubated with 1 mg of purified Tn(+)IgA1, or Tn(−)IgA1 for 30 min at RT. […] Heat map and correlation map of binding preferences were analyzed using GLAD (Glycan Array Dashboard).

[2] = test system: primary human renal mesangial cells; experiment: Inhibition of anti-Tn CICs-stimulated mesangial cell proliferation (Ki-67); type: cell-based; details: 30 min at RT
Description: […] of serum was mixed with […] of Tn(+)matrix beads or mock beads overnight at 4° C. (10 rpm). Supernatant was collected after pelleting the beads at 500×g for 30 sec at 4° C. After two rounds of such sequential anti-Tn CICs immunodepletion (serum-ID) and its control (serum-Mock), collected serum was filtered by syringe filter unit (Cat #SLHP033RS, Millipore Sigma) before use. Cells were cultured at ~90% confluency in 96-well plate, and starved in Mesangial cell media (Cat #4201) with 0.5% FBS (Cat #0010) and 0.05× mesangial cell growth supplement (MsCGS, Cat #4252) from ScienCell for 24 h at 37° C. prior to stimulation. Cells were stimulated with 5% serum-Mock, 5% serum-ID with or without exogenous anti-Tn CICs (50 ng/[…]/well, total) for 24 h at 37° C. incubator. Cells were fixed with 4% PFA with 0.05% Triton-X-100 in PBS for 20 min at 4° C. Fixed cells were blocked with 5% (vol/vol) goat serum in PBS for 1 h at 4° C., and incubated with anti-Ki-67 antibody (SP6, rabbit IgG, Cat #CRM325B, Biocare Medical, diluted to 1:50) in PBS for 1 h at 4° C. Cells were washed 3× with chilled PBS, and incubated with Alexa Fluor #488-goat anti-rabbit IgG (Cat #A27034, Thermo Fisher Scientific) at 1:400 in PBS for 1 h at 4° C. in the dark. Cells were washed 3× with chilled PBS, and stained with DAPI (diluted to 0.1 mM) in PBS for 10 min at RT, and analyzed using a microscope (AMG EVOS FL digital inverted microscope, Fisher Scientific, ×400 magnification). For inhibition assay, anti-Tn CICs was preincubated with 100 mM α-methylGalNAc, or α-methylGlcNAc in PBS for 30 min at RT. Serum from three healthy controls (C3, C6, and pooled C1-C10; Cmix) and three IgAN (P5, P10, and pooled P1-P10; Pmix) were used in this assay. […] of serum with IgAN (P1-P20) or healthy control (C1-C20) was analyzed on SDS-PAGE gel, and stained with Coomassie.

CO[C@H]1O[C@H](CO)[C@H](O)[C@H](O)[C@H]1NC(C)=O [α-methylGalNAc]
inhibition of anti-Tn antibody (IgM) binding to Tn glycopeptide array [1]: specifically inhibited binding of the anti-Tn IgM | inhibition of proliferative activity of anti-Tn CICs from IgAN patients toward mesangial cells ([2]; anti-Tn CICs purified from IgAN patients pretreated with 100 mM compound): inhibits their proliferative activity toward mesangial cells; also recorded: failed to stimulate human renal mesangial cells | inhibition of proliferative activity of anti-Tn CICs from healthy control sera toward mesangial cells ([2]; anti-Tn CICs purified from healthy control pretreated with 100 mM compound): did not significantly inhibit mesangial cell proliferation
